pKd: −log10 of the molar value. The source made the active and inactive calls. No cut-off for these calls is given here.
How the values were obtained:
BMDM [1] = experiment: Anti-osteoclastogenesis activity in C57BL/6 mouse BMDM cells assessed as inhibition of RANKL-induced osteoclastogenesis at 10 uM incubated for 7 days in the presence of M-CSF by TRAP-staining based microscopic analysis relative to control; type: functional; settings: C57BL/6, BMDM, 168 h, time 7 day
[2] = Cytotoxicity against C57BL/6 mouse BMDM cells incubated for 48 hrs by MTT assay; type: toxicity, cell-based; settings: BMDM cells (bone marrow-derived macrophages)
BMDM [3] = experiment: Anti-osteoclastogenesis activity in RANKL-induced C57BL/6 mouse BMDM cells assessed as downregulation of NFATc1 mRNA expression at 5 to 10 uM by qRT-PCR analysis; type: functional, cell-based; settings: dose 5-10 µM
BMDM [4] = experiment: Anti-osteoclastogenesis activity in RANKL-induced C57BL/6 mouse BMDM cells assessed as downregulation of TRAP mRNA expression at 5 to 10 uM by qRT-PCR analysis; type: functional, cell-based; settings: dose 5-10 µM
BMDM [5] = experiment: Anti-osteoclastogenesis activity in RANKL-induced C57BL/6 mouse BMDM cells assessed as downregulation of cathepsin K mRNA expression at 5 to 10 uM by qRT-PCR analysis; type: functional, cell-based; settings: dose 5-10 µM
BMDM [6] = experiment: Anti-osteoclastogenesis activity in RANKL-induced C57BL/6 mouse BMDM cells assessed as downregulation of MMP-9 mRNA expression at 5 to 10 uM by qRT-PCR analysis; type: functional, cell-based; settings: dose 5-10 µM
BMDM [7] = experiment: Anti-osteoclastogenesis activity in RANKL-induced C57BL/6 mouse BMDM cells assessed as decrease in number of F-actin ring formation at 1 to 10 uM incubated for 7 days in the presence of M-CSF by DAPI staining based fluorescence microscopic analysis; type: functional, cell-based; settings: dose 1-10 µM, time 7.0 day
BMDM [8] = experiment: Anti-osteoclastogenesis activity in RANKL-induced C57BL/6 mouse BMDM cells assessed as inhibition of bone resorption by measuring downregulation of Cathepsin K expression at 5 to 10 uM in the presence of M-CSF by Western blot analysis; type: functional, cell-based; settings: dose 5-10 µM
BMDM [9] = experiment: Anti-osteoclastogenesis activity in RANKL-induced C57BL/6 mouse BMDM cells assessed as increase in NQO-1 expression at 5 to 10 uM in the presence of M-CSF by Western blot analysis; type: functional, cell-based; settings: dose 5-10 µM
[10] = target: T1, Nuclear factor erythroid 2-related factor 2 (Mus musculus) (UniProt Q60795); experiment: Stabilization of Nrf2 in mouse RAW264.7 cells assessed as increase in Nrf2 protein level preincubated with compound for 6 hrs followed by CHX addition and measured after 45 mins by Western blot analysis; type: cell-based; settings: time 405.0 min
T1 sequence (whole entry): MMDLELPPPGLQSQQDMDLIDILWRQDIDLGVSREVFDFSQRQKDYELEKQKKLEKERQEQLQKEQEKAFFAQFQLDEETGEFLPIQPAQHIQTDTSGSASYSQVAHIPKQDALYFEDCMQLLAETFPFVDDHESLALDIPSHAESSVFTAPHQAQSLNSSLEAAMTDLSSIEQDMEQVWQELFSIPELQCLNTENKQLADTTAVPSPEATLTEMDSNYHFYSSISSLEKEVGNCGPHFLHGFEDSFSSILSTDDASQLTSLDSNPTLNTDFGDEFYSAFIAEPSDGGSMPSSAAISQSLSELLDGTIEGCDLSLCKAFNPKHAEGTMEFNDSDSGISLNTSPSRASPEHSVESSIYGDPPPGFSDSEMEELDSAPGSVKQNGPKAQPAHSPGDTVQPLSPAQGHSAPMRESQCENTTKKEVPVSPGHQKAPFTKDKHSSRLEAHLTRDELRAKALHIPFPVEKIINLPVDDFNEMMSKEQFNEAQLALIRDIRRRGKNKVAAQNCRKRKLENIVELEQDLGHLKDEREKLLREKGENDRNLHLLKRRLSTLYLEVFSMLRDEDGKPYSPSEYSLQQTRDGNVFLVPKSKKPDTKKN

RAW264.7 [11] = experiment: Anti-osteoclastogenesis activity in RANKL-induced mouse RAW264.7 cells transfected with Nrf2 siRNA assessed as increase in NQO-1 expression level incubated for 3 days by Western blot analysis; type: functional, cell-based; settings: time 3.0 day
RAW264.7 [12] = experiment: Anti-osteoclastogenesis activity in RANKL-induced mouse RAW264.7 cells transfected with Nrf2 siRNA assessed as increase in c-fos expression level incubated for 3 days by Western blot analysis; type: functional, cell-based; settings: time 3.0 day
BMDM [13] = experiment: Anti-osteoclastogenesis activity in C57BL/6 mouse BMDM cells transfected with Nrf2 siRNA assessed as inhibition of RANKL-induced osteoclastogenesis at 10 uM incubated for 5 days in the presence of M-CSF by TRAP-staining based microscopic analysis; type: functional, cell-based; settings: time 5.0 day
[14] = Inhibition of RANKL-induced ERK phosphorylation in C57BL/6 mouse BMDM cells incubated for 60 mins by Western blot analysis; type: cell-based
[15] = target: T2, NF-kappa-B inhibitor alpha (Mus musculus) (UniProt Q9Z1E3); experiment: Inhibition of RANKL-induced IkappaBalpha phosphorylation in C57BL/6 mouse BMDM cells incubated for 60 mins by Western blot analysis; type: cell-based
T2 sequence (whole entry): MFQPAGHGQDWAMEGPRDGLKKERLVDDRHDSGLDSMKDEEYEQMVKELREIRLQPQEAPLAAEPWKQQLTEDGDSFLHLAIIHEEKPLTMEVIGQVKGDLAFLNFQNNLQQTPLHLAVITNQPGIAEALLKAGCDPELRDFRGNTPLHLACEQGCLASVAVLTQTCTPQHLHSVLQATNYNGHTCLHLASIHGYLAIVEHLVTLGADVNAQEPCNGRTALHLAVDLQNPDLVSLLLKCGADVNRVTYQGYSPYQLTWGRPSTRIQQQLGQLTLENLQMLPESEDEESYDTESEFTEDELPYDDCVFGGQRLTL

[16] = target: Transcription factor p65 (Mus musculus) (UniProt Q04207); experiment: Inhibition of RANKL-induced p65 NF-kappaB phosphorylation in C57BL/6 mouse BMDM cells incubated for 60 mins by Western blot analysis; type: cell-based
[17] = target: MAP kinase p38 (Mus musculus) (UniProt P47811+O08911+Q9WUI1+Q9Z1B7); experiment: Inhibition of RANKL-induced p38 MAPK phosphorylation in C57BL/6 mouse BMDM cells transfected with Nrf2 siRNA at 10 uM incubated for 60 mins by Western blot analysis; type: cell-based
[18] = target: T3, Kelch-like ECH-associated protein 1 (Homo sapiens, UniProt Q14145); experiment: Binding affinity to recombinant human Keap1 assessed as equilibrium dissociation constant by SPR analysis
[19] = target: T3, Kelch-like ECH-associated protein 1; experiment: Binding affinity to recombinant human Keap1 by SPR analysis
[20] = target: Kelch-like ECH-associated protein 1/Nuclear factor erythroid 2-related factor 2 (Mus musculus) (UniProt Q60795+Q9Z2X8); experiment: Disruption of Nrf2 -Keap1 protein-protein interaction in RANKL-induced C57BL/6 mouse BMDM cells incubated for 24 hrs by Western blot based co-immunoprecipitation analysis; type: cell-based
Danio rerio = experiment: Anti osteoporosis activity in prednisone induced AB Zebrafish model of osteopenia assessed as increase in bone mineralization at 5 to 10 uM administered after 3 days post fertilization and measured after 6 days by Alizarin red staining based analysis; type: functional, organism-based; settings: dose 5-10 µM, time 6.0 day

T3 sequence (Q14145 whole entry): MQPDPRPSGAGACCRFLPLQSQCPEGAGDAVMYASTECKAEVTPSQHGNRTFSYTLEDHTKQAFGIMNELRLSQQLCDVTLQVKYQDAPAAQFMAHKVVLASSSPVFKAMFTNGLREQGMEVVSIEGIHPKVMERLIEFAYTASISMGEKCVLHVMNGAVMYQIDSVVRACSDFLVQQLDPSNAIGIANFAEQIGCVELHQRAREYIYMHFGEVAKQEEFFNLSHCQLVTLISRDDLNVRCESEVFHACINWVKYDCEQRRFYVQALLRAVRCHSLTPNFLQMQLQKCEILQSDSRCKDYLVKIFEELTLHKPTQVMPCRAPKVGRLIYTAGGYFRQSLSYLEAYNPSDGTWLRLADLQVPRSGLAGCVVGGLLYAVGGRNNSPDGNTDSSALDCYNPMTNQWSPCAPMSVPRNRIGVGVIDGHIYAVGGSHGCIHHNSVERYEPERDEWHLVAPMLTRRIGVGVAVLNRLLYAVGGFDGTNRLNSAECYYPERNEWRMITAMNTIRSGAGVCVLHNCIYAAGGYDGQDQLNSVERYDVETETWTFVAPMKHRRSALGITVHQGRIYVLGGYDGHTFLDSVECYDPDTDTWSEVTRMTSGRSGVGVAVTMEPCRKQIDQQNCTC
Sequence of Transcription factor p65 (Mus musculus) (Q04207 whole entry): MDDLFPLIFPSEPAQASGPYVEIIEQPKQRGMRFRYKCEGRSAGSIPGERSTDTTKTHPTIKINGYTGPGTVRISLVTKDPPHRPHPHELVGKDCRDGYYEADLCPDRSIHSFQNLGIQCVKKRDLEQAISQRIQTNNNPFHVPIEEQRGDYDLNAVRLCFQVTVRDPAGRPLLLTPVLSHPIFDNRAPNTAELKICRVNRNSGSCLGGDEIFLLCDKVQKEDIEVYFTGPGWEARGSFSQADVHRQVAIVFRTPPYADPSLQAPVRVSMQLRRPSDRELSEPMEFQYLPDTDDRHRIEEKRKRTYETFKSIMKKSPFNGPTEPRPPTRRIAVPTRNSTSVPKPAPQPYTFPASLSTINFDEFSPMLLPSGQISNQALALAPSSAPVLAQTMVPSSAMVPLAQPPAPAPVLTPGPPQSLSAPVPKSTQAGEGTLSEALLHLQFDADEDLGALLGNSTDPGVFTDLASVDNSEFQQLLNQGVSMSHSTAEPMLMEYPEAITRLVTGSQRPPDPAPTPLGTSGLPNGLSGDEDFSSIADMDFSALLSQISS
Sequence of Kelch-like ECH-associated protein 1/Nuclear factor erythroid 2-related factor 2 (Mus musculus) (Q9Z2X8 whole entry, looked up, one chain of several): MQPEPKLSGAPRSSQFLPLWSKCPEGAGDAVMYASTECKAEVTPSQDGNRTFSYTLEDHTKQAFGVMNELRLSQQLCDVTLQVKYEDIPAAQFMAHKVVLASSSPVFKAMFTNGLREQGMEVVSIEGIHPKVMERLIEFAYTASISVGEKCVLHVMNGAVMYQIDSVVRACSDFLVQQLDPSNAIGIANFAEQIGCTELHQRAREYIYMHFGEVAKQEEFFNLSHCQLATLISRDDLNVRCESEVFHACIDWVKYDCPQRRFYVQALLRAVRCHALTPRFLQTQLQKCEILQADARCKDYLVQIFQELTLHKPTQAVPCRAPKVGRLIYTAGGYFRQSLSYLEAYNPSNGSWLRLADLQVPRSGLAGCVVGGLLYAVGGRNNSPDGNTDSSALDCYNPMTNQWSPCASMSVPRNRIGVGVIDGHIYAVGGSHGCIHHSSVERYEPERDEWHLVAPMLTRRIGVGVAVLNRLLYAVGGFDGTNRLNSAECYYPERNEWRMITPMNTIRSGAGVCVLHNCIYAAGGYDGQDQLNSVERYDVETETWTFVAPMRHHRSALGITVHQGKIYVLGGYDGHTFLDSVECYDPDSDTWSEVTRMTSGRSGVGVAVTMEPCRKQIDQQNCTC

Activity [10]: Active
inhibition [15]: Active
inhibition [16]: Active
inhibition [17]: inactive
pKd [18]: 5.19
Activity [19]: Active
Activity [20]: Active
Structure (SMILES): C=C1[C@H]2O[C@]3([C@@H](C)C(=O)O[C@H]3[C@H]1Cl)[C@@H](OC(C)=O)[C@H]1[C@]3(CC[C@H](OC(C)=O)[C@]1(C)[C@@H](OC(C)=O)[C@@H]2OC(C)=O)CO3
inhibition at 10 µM (BMDM [1]): 100%
CC50 at 48 h [2]: > 50 µM
Activity (BMDM [3]): Active
Activity (BMDM [4]): Active
Activity (BMDM [5]): Active
Activity (BMDM [6]): Active
Activity (BMDM [7]): Active
Activity (BMDM [8]): Active
Activity (BMDM [9]): Active
Activity (RAW264.7 [11]): inactive
Activity (RAW264.7 [12]): inactive
Activity (BMDM [13]): inactive
inhibition [14]: Active
Activity (Danio rerio): Active

From ChEMBL document CHEMBL5331068, “Briarane-type diterpenoids, the inhibitors of osteoclast formation by interrupting Keap1-Nrf2 interaction and activating Nrf2 pathway” (Eur J Med Chem, 2023)
